Experimental data: US11358969B2, “Indole AHR inhibitors and uses thereof” (Ikena Oncology, Inc., priority 2017, dated 2022)

The molecules below were run against T1, AHR (UniProt P35869) (assay: DRE-Luciferase Reporter Assay (Alternate Method) (Example 1B)). Conditions: cell line and AHR activating ligand not specified.
T1 construct: IC50
T1 sequence (P35869 1-848): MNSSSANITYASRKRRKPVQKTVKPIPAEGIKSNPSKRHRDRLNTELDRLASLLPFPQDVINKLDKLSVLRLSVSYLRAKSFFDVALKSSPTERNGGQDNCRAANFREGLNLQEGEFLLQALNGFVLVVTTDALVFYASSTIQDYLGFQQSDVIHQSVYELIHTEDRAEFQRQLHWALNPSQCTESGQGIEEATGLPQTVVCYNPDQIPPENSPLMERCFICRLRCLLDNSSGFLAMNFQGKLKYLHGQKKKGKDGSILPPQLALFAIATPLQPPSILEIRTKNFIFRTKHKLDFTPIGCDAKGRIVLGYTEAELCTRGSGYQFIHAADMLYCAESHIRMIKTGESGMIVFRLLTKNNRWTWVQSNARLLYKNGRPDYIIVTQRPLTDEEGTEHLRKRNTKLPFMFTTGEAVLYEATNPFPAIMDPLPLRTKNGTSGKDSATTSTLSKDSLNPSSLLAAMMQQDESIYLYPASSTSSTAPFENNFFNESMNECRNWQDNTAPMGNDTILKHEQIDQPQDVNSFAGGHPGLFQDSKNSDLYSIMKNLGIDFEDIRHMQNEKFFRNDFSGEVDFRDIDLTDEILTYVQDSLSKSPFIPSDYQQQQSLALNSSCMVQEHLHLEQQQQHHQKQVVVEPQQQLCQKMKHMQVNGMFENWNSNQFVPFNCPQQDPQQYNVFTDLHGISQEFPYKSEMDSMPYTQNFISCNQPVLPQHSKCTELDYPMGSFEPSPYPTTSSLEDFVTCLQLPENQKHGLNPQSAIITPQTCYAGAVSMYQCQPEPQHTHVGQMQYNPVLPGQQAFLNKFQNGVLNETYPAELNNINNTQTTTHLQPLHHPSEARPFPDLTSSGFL
Type: cell-based, murine or human

`OCc1cnn2c(NCCc3c[nH]c4ccc(O)cc34)cc(-c3cncc(F)c3)nc12` [I-143, 3-[2-[[5-(5-fluoro-3-pyridyl)-3-(hydroxymethyl)pyrazolo[1,5-a]pyrimidin-7-yl]amino]ethyl]-1H-indol-5-ol] and `O=C(O)c1cnn2c(NCCc3c[nH]c4ccc(O)cc34)cc(-c3cncc(F)c3)nc12` [I-168] cannot be ordered by IC50: over 1500 nM for the first, over 1500 nM for the second.

First: OCc1cnn2c(NC[C@@H](O)c3c[nH]c4ccccc34)cc(-c3cncc(F)c3)nc12 [I-144a, (1S)-2-[[5-(5-fluoro-3-pyridyl)-3-(hydroxymethyl)pyrazolo[1,5-a]pyrimidin-7-yl]amino]-1-(1H-indol-3-yl)ethanol]
Second: Cc1cnn2c(NC[C@H](O)c3c[nH]c4ccccc34)cc(-c3cncc(F)c3)nc12 [I-150a, (1R)-2-[[5-(5-Fluoro-3-pyridyl)-3-methyl-pyrazolo[1,5-a]pyrimidin-7-yl]amino]-1-(1H-indol-3-yl)ethanol]
The IC50 of the first is higher: 1000 to 1500 nM for the first, under 500 nM for the second. The second is the more potent here.

`CC(C)c1cnn2c(N[C@H]3CCc4c([nH]c5ccccc45)C3)nc(-c3cncc(F)c3)nc12` [I-146a] and `CC(C)c1cnn2c(N[C@@H]3CCc4c([nH]c5ccccc45)C3)nc(-c3cncc(F)c3)nc12` [I-146b] cannot be ordered by IC50: over 1500 nM for the first, over 1500 nM for the second.

First: Fc1cncc(-c2nccc(NCCc3c[nH]c4ccccc34)n2)c1 [I-148]
Second: OCc1cnn2c(NCCc3c[nH]c4ccccc34)cc(-c3cncc(F)c3)nc12 [I-197, [5-(5-Fluoro-3-pyridyl)-7-[2-(1H-indol-3-yl)ethylamino]pyrazolo[1,5-a]pyrimidin-3-yl]methanol]
The IC50 of the first is higher: over 1500 nM for the first, under 500 nM for the second.

First: Cc1cnn2c(NCCc3c[nH]c4c(O)cc(O)cc34)cc(-c3cncc(F)c3)nc12 [I-149]
Second: Cc1cnn2c(NCCc3c[nH]c4c(O)cccc34)cc(-c3cncc(F)c3)nc12 [I-172, 3-[2-[[5-(5-Fluoro-3-pyridyl)-3-methyl-pyrazolo[1,5-a]pyrimidin-7-yl]amino]ethyl]-1H-indol-7-ol]
The IC50 of the first is higher: over 1500 nM for the first, 1000 to 1500 nM for the second.

Compared with `Cc1cnn2c(NC[C@@H](O)c3c[nH]c4ccccc34)cc(-c3cncc(F)c3)nc12` [I-150b, (1S)-2-[[5-(5-Fluoro-3-pyridyl)-3-methyl-pyrazolo[1,5-a]pyrimidin-7-yl]amino]-1-(1H-indol-3-yl)ethanol], `Cc1cnn2c(NC[C@@H](C)c3c[nH]c4ccccc34)cc(-c3cncc(F)c3)nc12` [I-160a, 5-(5-Fluoro-3-pyridyl)-N-[(2S)-2-(1H-indol-3-yl)propyl]-3-methyl-pyrazolo[1,5-a]pyrimidin-7-amine] is higher in IC50: 1000 to 1500 nM for the first, over 1500 nM for the second. The first is the more potent here.

Compared with `CC(C)Oc1cc(-c2ccccc2)nc(NCCc2c[nH]c3ccccc23)n1` [I-155, N-(2-(1H-Indol-3-yl)ethyl)-4-isopropoxy-6-phenylpyrimidin-2-amine], `O=C(O)c1cnn2c(NCCc3c[nH]c4ccccc34)cc(-c3cncc(F)c3)nc12` [I-183] is higher in IC50: 500 to 1000 nM for the first, over 1500 nM for the second. The first is the more potent here.

`Cc1c(-c2cncc(F)c2)nc2c(C)cnn2c1N[C@@H]1CCc2[nH]c3ccccc3c2C1` [I-157] and `CN(C)c1cnn2c(N[C@@H]3CCc4[nH]c5ccccc5c4C3)cc(-c3cncc(F)c3)nc12` [I-175, 5-(5-Fluoro-3-pyridyl)-N3,N3-dimethyl-N7-[(3R)-2,3,4,9-tetrahydro-1H-carbazol-3-yl]pyrazolo[1,5-a]pyrimidine-3,7-diamine] cannot be ordered by IC50: over 1500 nM for the first, over 1500 nM for the second.

`O=C(O)c1cnn2c(NC[C@H](O)c3c[nH]c4ccccc34)cc(-c3cncc(F)c3)nc12` [I-158a] and `O=C(O)c1cnn2c(NC[C@@H](O)c3c[nH]c4ccccc34)cc(-c3cncc(F)c3)nc12` [I-158b] cannot be ordered by IC50: over 1500 nM for the first, over 1500 nM for the second.

First: Cc1cnn2c(NC[C@H](C)c3c[nH]c4ccccc34)cc(-c3cncc(F)c3)nc12 [I-160b, 5-(5-Fluoro-3-pyridyl)-N-[(2R)-2-(1H-indol-3-yl)propyl]-3-methyl-pyrazolo[1,5-a]pyrimidin-7-amine]
Second: Cc1cnn2c(NCC(C)c3c[nH]c4ccccc34)cc(-c3cncc(F)c3)nc12 (stereo not drawn) [I-171, 5-(5-Fluoro-3-pyridyl)-N-[2-(1H-indol-3-yl)propyl]-3-methyl-pyrazolo[1,5-a]pyrimidin-7-amine]
The IC50 of the first is higher: over 1500 nM for the first, 1000 to 1500 nM for the second.

Compared with `Cc1cnn2c(NCC(=O)c3c[nH]c4ccccc34)cc(-c3cncc(F)c3)nc12` [I-163, 2-[[5-(5-Fluoro-3-pyridyl)-3-methyl-pyrazolo[1,5-a]pyrimidin-7-yl]amino]-1-(1H-indol-3-yl)ethanone], `Cc1cnn2c(NCC(C)(C)c3c[nH]c4ccccc34)cc(-c3cncc(F)c3)nc12` [I-170] is higher in IC50: under 500 nM for the first, over 1500 nM for the second. The first is the more potent here.

`Cc1cnn2c(NCC3(c4c[nH]c5ccccc45)CC3)cc(-c3cncc(F)c3)nc12` [I-167] and `Cc1cnn2c(NC(CO)Cc3c[nH]c4ccccc34)cc(-c3cncc(F)c3)nc12` (stereo not drawn) [I-178] cannot be ordered by IC50: over 1500 nM for the first, over 1500 nM for the second.

Compared with `Cc1c(-c2cncc(F)c2)nc2c(C)cnn2c1NCCc1c[nH]c2ccccc12` [I-169, 5-(5-Fluoro-3-pyridyl)-N-[2-(1H-indol-3-yl)ethyl]-3,6-dimethyl-pyrazolo[1,5-a]pyrimidin-7-amine], `Cc1cnn2c(OCCc3c[nH]c4ccccc34)cc(-c3cncc(F)c3)nc12` [I-184] is higher in IC50: 500 to 1000 nM for the first, over 1500 nM for the second.

First: Cc1cnn2c(NCCc3cn[nH]c3)cc(-c3cncc(F)c3)nc12 [I-173]
Second: Cc1cnn2c(NCCc3cc[nH]n3)cc(-c3cncc(F)c3)nc12 [I-180, 5-(5-Fluoro-3-pyridyl)-3-methyl-N-[2-(1H-pyrazol-3-yl)ethyl]pyrazolo[1,5-a]pyrimidin-7-amine]
The IC50 of the first is higher: over 1500 nM for the first, 500 to 1000 nM for the second. The second is the more potent here.

`Cc1cnn2c(N[C@H](Cc3c[nH]c4ccccc34)CN(C)C)cc(-c3cncc(F)c3)nc12` [I-174] and `Cc1cnn2c(NC(Cc3c[nH]c4ccccc34)CN(C)C)cc(-c3cncc(F)c3)nc12` (stereo not drawn) [I-176] cannot be ordered by IC50: over 1500 nM for the first, over 1500 nM for the second.

Going from `COc1cccc2c(CCNc3cc(-c4cncc(F)c4)nc4c(C)cnn34)c[nH]c12` [I-179, 5-(5-Fluoro-3-pyridyl)-N-[2-(7-methoxy-1H-indol-3-yl)ethyl]-3-methyl-pyrazolo[1,5-a]pyrimidin-7-amine] to `Cc1cnn2c(N[C@@H](CO)Cc3c[nH]c4ccccc34)cc(-c3cncc(F)c3)nc12` [I-185], the IC50 rises from under 500 nM to over 1500 nM. The first is the more potent here.

Compared with `CC(C)c1cnn2c(NC3CC3c3ccc(O)cc3)cc(-c3cncc(F)c3)nc12` (stereo not drawn) [I-181], `CN(C)c1cnn2c(N[C@@H]3Cc4ccc(O)cc4C3)cc(-c3cncc(F)c3)nc12` [I-204a, (2R)-2-[[3-(dimethylamino)-5-(5-fluoro-3-pyridyl)pyrazolo[1,5-a]pyrimidin-7-yl]amino]indan-5-ol] is lower in IC50: over 1500 nM for the first, under 500 nM for the second. The second is the more potent here.

`CNC(=O)C(Cc1c[nH]c2ccccc12)Nc1cc(-c2cncc(F)c2)nc2c(C)cnn12` (stereo not drawn) [I-182] and `CNC(=O)[C@@H](Cc1c[nH]c2ccccc12)Nc1cc(-c2cncc(F)c2)nc2c(C)cnn12` [I-189] cannot be ordered by IC50: over 1500 nM for the first, over 1500 nM for the second.

`Cc1cnn2c(NCCc3c[nH]c4cccnc34)nc(-c3cncc(F)c3)nc12` [I-186, 2-(5-Fluoro-3-pyridyl)-8-methyl-N-[2-(1H-pyrrolo[3,2-b]pyridin-3-yl)ethyl]pyrazolo[1,5-a][1,3,5]triazin-4-amine] and `Fc1cncc(-c2cc(NCCc3c[nH]c4cccnc34)n3ncc(Br)c3n2)c1` [I-192, 3-Bromo-5-(5-fluoro-3-pyridyl)-N-[2-(1H-pyrrolo[3,2-b]pyridin-3-yl)ethyl]pyrazolo[1,5-a]pyrimidin-7-amine] fall in the same range of IC50: 500 to 1000 nM for the first, 500 to 1000 nM for the second.

`Cc1cnn2c(N[C@H](Cc3c[nH]c4ccccc34)C(=O)N(C)C)cc(-c3cncc(F)c3)nc12` [I-187a] and `Cc1cnn2c(N[C@@H](Cc3c[nH]c4ccccc34)C(=O)N(C)C)cc(-c3cncc(F)c3)nc12` [I-187b, (2S)-2-[[5-(5-Fluoro-3-pyridyl)-3-methyl-pyrazolo[1,5-a]pyrimidin-7-yl]amino]-3-(1H-indol-3-yl)-N,N-dimethyl-propanamide] cannot be ordered by IC50: over 1500 nM for the first, over 1500 nM for the second.

`Cc1cnn2c(N[C@H](Cc3c[nH]c4ccccc34)C(N)=O)cc(-c3cncc(F)c3)nc12` [I-190a] and `Cc1cnn2c(NC(Cc3c[nH]c4ccccc34)C(N)=O)cc(-c3cncc(F)c3)nc12` (stereo not drawn) [I-190b] cannot be ordered by IC50: over 1500 nM for the first, over 1500 nM for the second.

`Cc1cnn2c(NCCc3ccnc(O)c3)cc(-c3cncc(F)c3)nc12` [I-193] and `Cc1cnn2c(NCCc3ccc(O)nc3)cc(-c3cncc(F)c3)nc12` [I-194] cannot be ordered by IC50: over 1500 nM for the first, over 1500 nM for the second.

`Cc1cnn2c(NCCc3ccc(NS(C)(=O)=O)cc3)cc(-c3cncc(F)c3)nc12` [I-195, N-[4-[2-[[5-(5-Fluoro-3-pyridyl)-3-methyl-pyrazolo[1,5-a]pyrimidin-7-yl]amino]ethyl]phenyl]methanesulfonamide] and `CC(=O)Nc1ccc(CCNc2cc(-c3cncc(F)c3)nc3c(C)cnn23)cc1` [I-206] cannot be ordered by IC50: over 1500 nM for the first, over 1500 nM for the second.

First: C[C@H](O)c1cnn2c(N[C@@H]3CCc4[nH]c5ccccc5c4C3)cc(-c3cncc(F)c3)nc12 [I-198b, (1S)-1-[5-(5-fluoro-3-pyridyl)-7-[[(3R)-2,3,4,9-tetrahydro-1H-carbazol-3-yl]amino]pyrazolo[1,5-a]pyrimidin-3-yl]ethanol]
Second: Cc1cnn2c(NCCc3c[nH]cn3)cc(-c3cncc(F)c3)nc12 [I-207]
The IC50 of the first is lower: 500 to 1000 nM for the first, over 1500 nM for the second.
